From publication PMC8803706, “Fibroblast activation protein targeted therapy using [^177Lu]FAPI-46 compared with [^225Ac]FAPI-46 in a pancreatic cancer model” (European Journal of Nuclear Medicine and Molecular Imaging, 2021)

Assays:
[1] = test system: PANC-1 xenograft mice; test: [^18F]FAPI-74 PET imaging in PANC-1 xenograft mice; format: in vivo
Protocol: PET images were acquired with a small animal PET scanner (Siemens Inveon PET/CT) 3 weeks after the implantation in PANC-1 xenograft mice (9 weeks old, body weight = 25.3 ± 1.2 g, n = 9). Under 2% isoflurane anesthesia, [^18F]FAPI-74 (12.4 ± 1.7 MBq) was injected in the tail vein. Dynamic PET scans (scan duration = 70 min, n = 2) were started simultaneously with the bolus injection. Static PET scans (scan duration = 10 min, n = 7) were performed 1 h after injection, followed by a CT scan. PET data were reconstructed into 2-min frames in the dynamic PET scan (2 min × 35 frames) and one frame in the static PET scan by three-dimensional ordered-subset expectation–maximization (16 subsets, 2 iterations), with attenuation and scatter correction. Regions of interest were drawn on the muscle, heart, lungs, liver, gallbladder, kidneys, intestine, and tumour. The mean standardized uptake values (SUVmean) and maximum standardized uptake values (SUVmax) were measured using PMOD (Version 4.0).

[2] = test system: PANC-1 xenograft mice; test: Biodistribution of [^177Lu]FAPI-46 and [^225Ac]FAPI-46 in PANC-1 xenograft mice (gamma counter); format: in vivo; details: for organs with relatively high accumulation / residence: 24 h post-injection; for clearance from organs: between 3 and 24 h post-administration
Protocol: [^177Lu]FAPI-46 (3.3 ± 0.1 MBq) and [^225Ac]FAPI-46 (12.5 ± 0.7 kBq) were injected into PANC-1 xenograft mice (9 weeks old, body weight = 23.9 ± 0.9 g, n = 12). After euthanasia by deep inhalation anesthesia with isoflurane, the brain, thyroid gland, salivary glands, lungs, heart, liver, spleen, pancreas, stomach, small intestine, large intestine, kidneys, bone (femur), bladder, testis, tumour, blood, and urine were removed and weighed at 3 h and 24 h. Radioactivity was also measured using a gamma counter (2480 Wizard^2 Gamma Counter, Perkin Elmer, USA).

[3] = Body weight of treated PANC-1 xenograft mice; format: in vivo
Protocol: (§1) [^177Lu]FAPI-46 and [^225Ac]FAPI-46 were injected into PANC-1 xenograft mice via the tail vein (9 weeks old, body weight = 22.7 ± 2.1 g). Mice injected with [^177Lu]FAPI-46 were divided into four groups according to the injected dose: 3 MBq (3.2 ± 0.1 MBq, n = 6), 10 MBq (10.2 ± 0.5 MBq, n = 6), 30 MBq (30.5 ± 2.7 MBq, n = 6) and control (n = 4) groups. Mice injected with [^225Ac]FAPI-46 were divided into four groups: 3 kBq (2.9 ± 0.0 kBq, n = 3), 10 kBq (8.5 ± 1.1 kBq, n = 2), 30 kBq (30.5 ± 0.7 kBq, n = 6) and control (n = 7) groups. The tumour size and body weight were measured with a caliper using the elliptical sphere model calculation, three times per week during the observation period.

[4] = test system: PANC-1 xenograft mice; test: Histological analysis (H&E) of kidneys and tumours after treatment; format: in vivo
Protocol: All mice were killed after [^18F]FAPI-74 PET imaging, and tumour xenografts were removed. Immunohistochemical staining was performed using anti-FAP alpha antibody (ab53066; Abcam, Cambridge, UK), and the Dako EnVision + System—HRP Labelled Polymer Anti-Rabbit (K4003) (DAKO Corp., Glostrup, Denmark). To evaluate toxicity, the kidneys were removed after the mice treated with [^177Lu]FAPI-46 and [^225Ac]FAPI-46 were sacrificed. The tissues were fixed in 10% neutral buffered formalin solution for paraffin blocks and stained with hematoxylin and eosin (H&E). Tumour blocks in all mice were also stained with H&E.

[5] = test system: PANC-1 xenograft; test: Treatment effect on tumour size in PANC-1 xenograft mice; format: in vivo; details: for relative ratio of the tumour size compared to the control group: day 40
Protocol: Male nude mice (BALB/cSlc-nu/nu) were purchased from Japan SLC Inc. (Hamamatsu, Japan). Animals were housed under a 12-h light/12-h dark cycle and allowed free access to food and water. The mice were injected with PANC-1 cells (1 × 10^7 cells) in a mixture of phosphate-buffered saline and Matrigel (0.1 mL, 1:1; BD Biosciences, Franklin Lakes, NJ, USA). Tumour xenograft models were evaluated 3 weeks after transplantation of PANC-1 cells (tumour volume = 716 ± 304 mm^3). Euthanasia was performed in the following conditions: (1) when the animals had unbearable suffering, (2) when a significant decrease in activity or a marked decrease in food and water intake was observed, and (3) at the end of the observation period (up to 44 days for [^177Lu]FAPI-46 and 32 days for [^225Ac]FAPI-46). Euthanasia was performed by deep anesthesia using isoflurane inhalation.
as §1

[6] = test system: PANC-1 xenograft mice; details: data not shown
[7] = static PET scan 1 h after i.v. injection

## N#C[C@@H]1CCCN1C(=O)CNC(=O)c1ccnc2ccc(OCCCN3CCN(C(=O)CN4CCN(CC(=O)[O-])CCN(CC(=O)[O-])CC4)CC3)cc12.[18F][Al+2] [[^18F]FAPI-74]
[1]; [7]
  SUVmean in the gallbladder: 0.66 ± 0.15
  SUVmean in the heart: 0.08 ± 0.01
  SUVmean in the intestine: 0.61 ± 0.48
  SUVmean in the kidneys: 0.39 ± 0.07
  SUVmean in the liver: 0.14 ± 0.02
  SUVmean in the muscle: 0.05 ± 0.01
  SUVmean in the tumour: 0.24 ± 0.04
[1]; time-activity curve
  clearance and tumour washout on dynamic PET: cleared rapidly by the kidneys but washout from the tumour occurred slowly

## CN(CCCN1CCN(C(=O)CN2CCN(CC(=O)[O-])CCN(CC(=O)[O-])CCN(CC(=O)[O-])CC2)CC1)c1ccc2nccc(C(=O)NCC(=O)N3CC(F)(F)C[C@H]3C#N)c2c1.[177Lu+3] [[^177Lu]FAPI-46]
[2]; 3 h post-administration, PANC-1 xenograft mice
  %ID/g of the urine: 21.2 ± 15.3 %ID/g
[2]
  organs with relatively high accumulation / residence: relatively high tracer accumulation was seen in the tumour, large intestine, and bone
  clearance from organs: Most organs showed fast clearance
[2]; PANC-1 xenograft mice
  uptake in the liver: low
[3]; 10 MBq and 30 MBq groups
  body weight compared to the controls: slight decrease without statistical significance
[4]; day 44 after administration
  histological changes in the kidneys (H&E): No histological changes
  histological changes in the tumour (H&E) compared to controls: No significant difference
[5]; 3, 10, 30 MBq, multiple comparisons across the doses
  tumour growth after administration: inhibitory trend after administration, although the changes were not statistically significant
[5]; 3 MBq and 10 MBq groups
  therapeutic effects (time course): slower and were seen until day 12
[5]; 3 MBq group
  relative ratio of the tumour size compared to the control group: 0.62
[5]; 10 MBq group
  relative ratio of the tumour size compared to the control group: 0.56
[5]; 30 MBq group
  time after administration at which tumour-suppressive effects were observed: 9 days
  relative ratio of the tumour size compared to the control group: 0.27

## [177Lu+3].[Cl-].[Cl-].[Cl-] [[^177Lu]LuCl3, Lutetium-177 chloride]
[6]
  lethal dose: 30 MBq

## CN(CCCN1CCN(C(=O)CN2CCN(CC(=O)[O-])CCN(CC(=O)[O-])CCN(CC(=O)[O-])CC2)CC1)c1ccc2nccc(C(=O)NCC(=O)N3CC(F)(F)C[C@H]3C#N)c2c1.[225Ac+3] [[^225Ac]FAPI-46]
[2]
  organs with relatively high accumulation / residence: relatively higher residence time in the tumour, spleen, liver, stomach, small intestine, and large intestine
  clearance from organs: Most organs showed fast clearance
[2]; PANC-1 xenograft mice
  uptake in the liver: high accumulation in the liver
[3]; 3 kBq and 10 kBq groups
  body weight recovery: recovery after day 7
[3]; all groups (3, 10, 30 kBq)
  body weight: decreasing trend in the first week
[4]; day 32 after administration
  histological changes in the kidneys (H&E): No histological changes
[5]; 3 kBq group
  tumour-suppressive effects: very mild
[5]; 10 kBq and 30 kBq groups
  tumour growth after treatment: suppressed immediately after treatment
[5]; 30 kBq group
  tumour size vs control group: significantly smaller than those in the control group on days 5–9 and day 25
[5]; high dose
  day at which tumour regrowth began: 12 days
